# In paper PMC12446468, “Anti-inflammatory and cytotoxic assessment of flavonoids isolated from Viola odorata flowers with computer-guided docking study” (Scientific Reports, 2025):
# Marks after values point to notes of the source that are not given here.
# Legend:
# COX-1 = biological target: T1, COX-1 (Ovis aries, UniProt P05979); assay: COX-1 inhibition assay (Cayman COX kit); assay type: biochemical, ovine/human; settings: mean ± SE, n = 3
# T1 construct: purchased Cayman 560131
# T1 sequence (P05979 25-600): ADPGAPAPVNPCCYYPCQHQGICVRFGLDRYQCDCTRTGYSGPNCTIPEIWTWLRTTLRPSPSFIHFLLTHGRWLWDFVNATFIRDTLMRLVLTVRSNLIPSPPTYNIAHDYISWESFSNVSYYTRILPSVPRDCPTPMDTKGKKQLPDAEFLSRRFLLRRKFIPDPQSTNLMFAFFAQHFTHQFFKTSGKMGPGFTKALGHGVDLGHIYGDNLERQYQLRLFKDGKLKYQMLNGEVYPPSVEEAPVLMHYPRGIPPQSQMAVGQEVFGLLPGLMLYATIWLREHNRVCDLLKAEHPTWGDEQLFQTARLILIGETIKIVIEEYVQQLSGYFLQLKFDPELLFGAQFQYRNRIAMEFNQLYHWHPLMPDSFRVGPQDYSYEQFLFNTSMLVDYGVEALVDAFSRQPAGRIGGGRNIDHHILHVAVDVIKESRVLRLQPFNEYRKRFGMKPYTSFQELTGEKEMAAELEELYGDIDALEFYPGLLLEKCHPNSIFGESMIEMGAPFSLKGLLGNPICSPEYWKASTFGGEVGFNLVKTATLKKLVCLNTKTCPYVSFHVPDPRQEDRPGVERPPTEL
# Description: (§1) The requirements for High-Performance Liquid Chromatography (HPLC) and all compounds tested were of the utmost analytical purity. […] COX-1 and COX-2 (ovine/human), as well as the 5-LOX enzyme (human recombinant) were obtained from Sigma-Aldrich. Dulbecco’s Modified Eagle’s Medium (DMEM), along with penicillin/streptomycin and L-glutamine, were acquired from Gibco BRL, California, USA. Fetal bovine serum (FBS) and 3-(4, 5-dimethylthiazol-2-yl)-2, 5-[…] (MTT) were supplied by Sigma-Aldrich, St. Louis, Missouri, USA.
# (§2) The methanolic extract of V. odorata flowers and isolated flavonoids were subjected to an in vitro anti-inflammatory assessment by inhibiting two isoenzymes, cyclooxygenase COX-1 and COX-2 (ovine/human), as well as the 5-LOX enzyme (human recombinant).
# [1] = biological target: T2, 5-LOX enzyme (human recombinant) (Homo sapiens, UniProt P09917); assay: 5-lipoxygenase inhibition assay (5-LOX kit); assay type: biochemical; settings: mean ± SE, n = 3
# T2 construct: purchased Sigma-Aldrich 437996
# T2 sequence (P09917 1-674): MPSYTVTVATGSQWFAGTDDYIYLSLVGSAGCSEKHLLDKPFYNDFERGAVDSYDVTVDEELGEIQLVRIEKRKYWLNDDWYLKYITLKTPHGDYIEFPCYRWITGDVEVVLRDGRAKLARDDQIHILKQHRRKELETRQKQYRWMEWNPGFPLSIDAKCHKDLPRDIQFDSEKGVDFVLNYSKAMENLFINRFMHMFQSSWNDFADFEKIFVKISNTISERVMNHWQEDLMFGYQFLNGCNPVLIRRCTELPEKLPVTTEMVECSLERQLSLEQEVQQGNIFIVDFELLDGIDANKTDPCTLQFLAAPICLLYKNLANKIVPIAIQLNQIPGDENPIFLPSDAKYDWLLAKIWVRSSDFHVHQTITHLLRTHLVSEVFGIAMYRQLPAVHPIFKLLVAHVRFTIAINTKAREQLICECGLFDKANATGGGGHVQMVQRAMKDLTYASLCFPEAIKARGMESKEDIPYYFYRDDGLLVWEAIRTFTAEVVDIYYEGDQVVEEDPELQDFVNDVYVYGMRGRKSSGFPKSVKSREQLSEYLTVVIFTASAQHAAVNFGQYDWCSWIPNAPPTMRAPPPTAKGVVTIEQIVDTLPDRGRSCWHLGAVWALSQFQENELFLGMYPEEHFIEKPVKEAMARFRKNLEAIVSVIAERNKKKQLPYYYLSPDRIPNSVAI
# Description: as §1, §2
# [2] = test system: human colorectal carcinoma cells (HTC-116); assay: MTT cytotoxicity assay, HTC-116; assay type: cell-based; settings: for % Cell viability / % Cytotoxicity: 48 h
# Procedure: (§3) The assessment of cytotoxicity for the methanolic extract and isolated flavonoids was performed under controlled and sterile conditions within a Class II A2 Laminar flow biosafety cabinet. The carcinoma cell lines used in this study was obtained from Nawah Scientific Inc. (Cairo, Egypt). The cells were cultured in Dulbecco’s Modified Eagle’s Medium, enriched with 10% heat-inactivated fetal bovine serum, 100 U/ml penicillin, and 100 μg/ml streptomycin sulfate, maintained at […] in humidified incubators with 5% CO2. Upon reaching approximately 80% confluence, the cells were subcultured using a trypsin–EDTA solution. Harvesting occurred during the logarithmic growth phase. The methanolic extract and isolated flavonoids were dissolved in DMSO and stored at − 20 °C. For each experimental trial, the stock solutions were mixed with the culture medium to obtain the required final concentrations.
# (§4) The effectiveness of the extract was compared to that of the reference drug, Doxorubicin. The percentage of cell viability was calculated by taking the ratio of the absorbance of the plant extract to that of the control, multiplied by 100. Furthermore, the IC50 value of the plant extract was determined using Sigma Plot software version 11 (Spw.exe) (https://sigmaplot.software.informer.com/11.0/).
# [3] = test system: human colonic epithelial cells (Caco-2); assay: MTT cytotoxicity assay, Caco-2; assay type: cell-based; settings: for % Cell viability / % Cytotoxicity: 48 h
# Procedure: as §3, §4
# COX-2 = biological target: T3, COX-2 (Homo sapiens, UniProt P35354); assay: COX-2 inhibition assay (Cayman COX kit); assay type: biochemical, ovine/human
# T3 construct: purchased Cayman 560131
# T3 sequence (P35354 18-604): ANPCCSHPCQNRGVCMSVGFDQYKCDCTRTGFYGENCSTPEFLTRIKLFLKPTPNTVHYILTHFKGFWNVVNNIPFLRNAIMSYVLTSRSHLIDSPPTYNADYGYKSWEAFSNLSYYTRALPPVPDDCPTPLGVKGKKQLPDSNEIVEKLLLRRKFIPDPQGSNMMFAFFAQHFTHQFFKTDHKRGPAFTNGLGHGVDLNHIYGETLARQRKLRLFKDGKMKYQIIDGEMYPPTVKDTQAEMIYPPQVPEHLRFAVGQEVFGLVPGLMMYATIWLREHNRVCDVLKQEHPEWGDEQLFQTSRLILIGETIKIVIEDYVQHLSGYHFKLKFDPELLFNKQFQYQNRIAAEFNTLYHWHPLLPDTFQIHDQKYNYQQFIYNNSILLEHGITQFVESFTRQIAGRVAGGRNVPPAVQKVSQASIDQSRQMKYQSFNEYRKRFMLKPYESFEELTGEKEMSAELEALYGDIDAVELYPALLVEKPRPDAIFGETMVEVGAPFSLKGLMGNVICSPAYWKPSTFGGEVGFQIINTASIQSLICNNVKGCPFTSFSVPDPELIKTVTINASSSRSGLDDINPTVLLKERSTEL
# Description: as §1, §2
# [4] = test system: hepatocellular carcinoma (HepG2); assay: MTT cytotoxicity assay, HepG2; assay type: cell-based, human; settings: for % Cell viability / % Cytotoxicity: 48 h
# Procedure: as §3, §4
compound,measurement,setting,value
"O=c1cc(-c2ccc(O)c(O)c2)oc2cc(O[C@@H]3O[C@H](CO)[C@@H](O)[C@H](O)[C@H]3O)cc(O)c12 [Luteolin 7-O-glucoside, luteolin 7-O-glucoside]",IC50 values COX-1,COX-1,0.982 ± 0.09^c ug/ml
same,IC50 values 5-LOX,[1],0.915 ± 0.21^ab ug/ml
same,% Cell viability,"[2]; HTC-116, 6.25 ug/ml",69.86%
same,% Cytotoxicity,"[2]; HTC-116, 6.25 ug/ml",30.14%
same,% Cell viability,"[2]; HTC-116, 12.5 ug/ml",59.38%
same,% Cytotoxicity,"[2]; HTC-116, 12.5 ug/ml",40.62%
same,% Cell viability,"[2]; HTC-116, 25 ug/ml",49.17%
same,% Cytotoxicity,"[2]; HTC-116, 25 ug/ml",50.83%
same,% Cell viability,"[2]; HTC-116, 50 ug/ml",34.03%
same,% Cytotoxicity,"[2]; HTC-116, 50 ug/ml",65.97%
same,% Cell viability,"[2]; HTC-116, 100 ug/ml",13.01%
same,% Cytotoxicity,"[2]; HTC-116, 100 ug/ml",86.99%
same,IC50,"[2]; HTC-116, 48 h",30.17^c ug/ml
same,% Cell viability,"[3]; Caco-2, 6.25 ug/ml",70.32%
same,% Cytotoxicity,"[3]; Caco-2, 6.25 ug/ml",29.68%
same,% Cell viability,"[3]; Caco-2, 12.5 ug/ml",60.35%
same,% Cytotoxicity,"[3]; Caco-2, 12.5 ug/ml",39.65%
same,% Cell viability,"[3]; Caco-2, 25 ug/ml",49.22%
same,% Cytotoxicity,"[3]; Caco-2, 25 ug/ml",50.78%
same,% Cell viability,"[3]; Caco-2, 50 ug/ml",31.01%
same,% Cytotoxicity,"[3]; Caco-2, 50 ug/ml",68.99%
same,% Cell viability,"[3]; Caco-2, 100 ug/ml",10.63%
same,% Cytotoxicity,"[3]; Caco-2, 100 ug/ml",89.37%
same,IC50,"[3]; Caco-2, 48 h",29.42^c ug/ml
same,IC50 values COX-2,"COX-2; mean ± SE, n = 3",1.305 ± 0.14^b ug/ml
same,Selectivity Index (COX-1/COX-2),COX-2; ratio of IC50 COX-1 to IC50 COX-2,0.75
same,% Cell viability,"[4]; HepG2, 6.25 ug/ml",70.35%
same,% Cytotoxicity,"[4]; HepG2, 6.25 ug/ml",29.65%
same,% Cell viability,"[4]; HepG2, 12.5 ug/ml",63.99%
same,% Cytotoxicity,"[4]; HepG2, 12.5 ug/ml",36.01%
same,% Cell viability,"[4]; HepG2, 25 ug/ml",42.58%
same,% Cytotoxicity,"[4]; HepG2, 25 ug/ml",57.42%
same,% Cell viability,"[4]; HepG2, 50 ug/ml",28.52%
same,% Cytotoxicity,"[4]; HepG2, 50 ug/ml",71.48%
same,% Cell viability,"[4]; HepG2, 100 ug/ml",14.11%
same,% Cytotoxicity,"[4]; HepG2, 100 ug/ml",85.89%
same,IC50,"[4]; HepG2, 48 h",28.23^c ug/ml
